Biological target: GFP-PfPK9 (Plasmodium falciparum, UniProt Q8IEG4)
Test: ATP-competitive binding assay (ATP-sepharose pull-down, FLECS)
Details: GFP-PfPK9; Kd calculated from EC50 of ATP pull-down dose-response; read-out: Kd, app
Protocol: Primary small-molecule screen. A small-molecule screen was performed similar to a previously reported fluorescence linked enzyme chemoproteomic strategy (FLECS). Briefly, HEK293-GFP-PfPK9 cells were grown in 182-cm^2 tissue culture flasks (Genesee Scientific) and harvested at ˜80% cell confluency. Before assays the culture medium was aspirated, cells were rinsed with ice cold PBS and then they were removed with a cell scraper. Cells were pelleted by centrifugation (2,000 rpm, 4° C., 2 min) and immediately lysed for assays. The pellet was suspended in buffer A (25 mM HEPES, pH 7.4, 150 mM NaCl, 60 mM MgCl2, 1 mM DTT) with 1 μM microcystin, 0.1% Triton X-100 plus a Roche Complete protease inhibitor tablet and then placed on ice for 30 min to facilitate lysis. The supernatant was collected after centrifugation (4,300 rpm, 4° C., 5 min) and used in subsequent screening and titrations experiments. For screening, the supernatant was added to ATP-sepharose beads (1:1) and incubated with agitation at 4° C. for at least 1 hr to allow binding. Following this incubation, the mixture was centrifuged, the ATP resin was washed with 9 column volumes of buffer A with 1 M NaCl and then 9 column volumes of buffer A. The ATP-sepharose medium was reconstituted as a 1:1 slurry with buffer A and then added to 96-well filter plates (50 μL/well) (Corning #3505) using a multichannel pipette (Rainin). The filter plate was on top of black 96-well catch plates (Corning #3915). An ATP dilution series (1-200 mM) was added to each plate as a positive control and DMSO was the negative control. Compounds and controls were all added to 50 μL per well in buffer A. For screening, compounds were tested in singlicate at 500 μM. The final DMSO concentration in every well was 5%. The fluorescence intensity in each well was measured on an EnVision system. Data analyses of screens were carried out in EXCEL (Microsoft, Corp.) and actives were identified as 2×background signal.
All screening positives that were verified with Western blot analysis were purchased from Enamine or Vitas-M laboratory. The purity of compounds 1-5 (shown below) was verified by high-resolution MS (Agilent). Compounds were tested in 8-point dose-response (0-500 μM) experiments in duplicate, essential as described above. The fluorescence intensity in each well was measured using an EnVision system. Dose-response analysis was performed with GraphPad Prism to acquire EC50 values. Determined EC50 values were used to calculate the observed PfPK9 Kd and reported values are the average of 2-3 independent experiments.
Stable cell line generation. The P. falciparum PK9 gene (PlasmoDB accession #PF3D7_1315100) was cloned into the pEGFP-C1 mammalian expression vector (Clontech) in frame with a […] GFP tag. For screening, HEK293 cells were transfected with the resulting PfPK9-pEGFP-C1 vector to generate HEK293-GFP-PfPK9 expressing cells using X-tremeGENE HP transfection reagent (Roche) per the manufacturer instructions. Briefly, the culture medium was replaced at 48 hours post-transfection with medium supplemented with 1 mg/mL G418 sulfate (Life Technologies) to select for stably transfected cells. Following stable cell selection, fluorescence activated cell sorting (FACS) was used to enrich for GFP-PfPK9 expressing cells. Subsequently, FACS sorted HEK293-GFP-PfPK9 cells were cultured with medium supplemented with 0.5 mg/mL G418 sulfate for all following experiments. Protein expression was verified by Western blot analysis probing for anti-GFP and by fluorescence intensity using an EnVision (PerkinElmer) system.
All 14 positive molecules were also tested for their binding affinity to PfPK9 using an optimized ATP-competitive binding assay. EC50 values ranging from low μM to low mM were observed and these EC50 values were used to derive dissociation constants as described previously. […]

GFP-PfPK9, sequence (Q8IEG4 entry or part of it): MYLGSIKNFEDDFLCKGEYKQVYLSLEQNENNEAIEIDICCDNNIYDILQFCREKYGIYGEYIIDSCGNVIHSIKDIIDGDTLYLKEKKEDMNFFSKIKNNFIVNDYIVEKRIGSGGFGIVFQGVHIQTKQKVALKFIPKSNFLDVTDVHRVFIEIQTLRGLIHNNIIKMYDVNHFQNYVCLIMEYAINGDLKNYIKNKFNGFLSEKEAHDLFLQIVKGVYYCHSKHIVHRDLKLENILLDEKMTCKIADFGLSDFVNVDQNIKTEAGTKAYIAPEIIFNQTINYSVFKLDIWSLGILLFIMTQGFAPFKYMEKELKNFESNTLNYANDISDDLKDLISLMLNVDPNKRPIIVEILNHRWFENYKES

CCCn1c(NC(=O)c2cccc(C(N)=O)c2)nc2ccccc21 [HS-206 (1), (E)-N-(1-Propyl-1,3-dihydro-2H-benzo[d]imidazol-2-ylidene)isophthalamide]
Kd: 200 nM

From patent US11767298B2, “Substituted benzimidazoles as inhibitors of transforming growth factor-β kinase” (Duke University, priority 2016, dated 2023)
